Like-named read-outs stand apart in the source and are kept apart here. Positions of bridges follow the written chain, without caps; N, C: chain ends. Residues, ends and D or L forms follow the SMILES beside them. *: point of attachment. X1 = O=C(O)c1ccc(-c2c3nc(c(-c4ccc(C(=O)O)cc4)c4ccc([nH]4)c(-c4ccc(C(=O)*)cc4)c4nc(c(-c5ccc(C(=O)O)cc5)c5ccc2[nH]5)C=C4)C=C3)cc1; X2 = O=C(O)C/C(=C/C(=O)*)C(=O)O
Experiments:
Particle size by DLS = type: physicochemical
Description: Nano-ZS 3600 (Malvern Instruments, UK) was used to measure the size distribution of the peptide-porphyrin conjugate solutions. The conjugate solutions (40 μM) were incubated at pH 7.4 or pH 6.5 before measurements. An average value was determined by three repeated measurements at 25 °C for each sample. Besides, transmission electron microscopy (TEM, Tecnai G2 20 S-TWIN) was conducted to observe the morphology and diameters of conjugates in aqueous solution, The conjugates (50 μL, 40 μM) were kept in PB solution at pH 7.4 or pH 6.5, which were dropped on copper meshes. After 5 min, unnecessary liquid was removed and the uranyl acetate solution (10 μL) was dropped on this copper mesh to stain the samples for 10 min. Finally, the copper meshes were washed with deionized water, and dried at room temperature for observation.

EJ cells = test: Intracellular Fe2+ ions detection; type: cell-based
Description: Initially, EJ cells (5 × 10^5) were cultured in confocal dish with a CO2 incubator overnight at 37 °C. […] Afterwards, EJ cells were washed with PBS for 3 times and replaced with culture mediums.

HUVEC cells = type: cell-based; details: HUVEC cells, pH=7.4
Description: Supplementary Fig. 27. Viability of HUVEC cells after treated with Gi -F (pH=7.4) and Gi-F-CAA (pH=7.4) at different
concentrations for 48 h (n=3 experimental repeats). Experiment was independently repeated three times with
(1 picture or pasted object on this page, not shown here)

GPX4 protein = test: Microscale Thermophoresis (MST) ligand binding; details: labelled GPX4
Description: Initially, GPX4 was labeled using Protein Labeling Kit RED-NHS according to the manufacturer’s instructions to investigate the binding affinity of Gi-F-CAA, Gi-F and NGi-F-CAA with GPX4 protein. Afterward, the labelled GPX4 protein was incubated with series of Gi-F-CAA, Gi-F and NGi-F-CAA concentration gradients. Finally, the prepared samples were loaded into silica capillaries and measured with Monolish NT.115. Apparent Kd represented the affinity of assemblies rather than a single molecule. Bovine serum albumin (BSA) was used as control for calculating the apparent binding affinity between Gi-F (nanoparticle) to GPX4 protein. Briefly, as the diameter of nanoparticle is proportional to the molecular weight, according to the reported bovine serum albumin (BSA) protein size and molecular weight (7.2 nm, 66.43 KDa), the molecular weight of Gi-F nanoparticle with an average 78 nm size can be calculated to be […]. The monomer amount Gi-F nanoparticle was calculated as […].

GPX4 = target: T1, GPX4 (Homo sapiens, UniProt P36969); test: Intracellular GPX4 activity detection; type: cell-based; parameters: endogenous in cells; host or cells: EJ bladder cancer cells
T1 sequence (P36969 1-197): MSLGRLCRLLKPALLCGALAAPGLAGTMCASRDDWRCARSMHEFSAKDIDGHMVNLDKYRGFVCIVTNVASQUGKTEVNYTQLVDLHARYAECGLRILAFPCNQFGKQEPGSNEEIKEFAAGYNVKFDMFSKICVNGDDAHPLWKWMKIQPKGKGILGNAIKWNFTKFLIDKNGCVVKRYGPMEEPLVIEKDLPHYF
Description: Initially, EJ cells (5 × 10^5) were cultured in 6-well plate with a CO2 incubator overnight at 37 °C. […] Next, EJ cells were collected and washed with PBS for 3 times. Afterwards, the cell lysates were collected by centrifugation at 5000 rpm for 10 min at 4 °C after ultrasonic lysis in an ice bath. Finally, the GPX4 activity were measured with a GPX Assay Kit based on the manufacturer’s instructions.

For `CC(C)C[C@H](NC(=O)c1ccc(-c2c3nc(c(-c4ccc(C(=O)O)cc4)c4ccc([nH]4)c(-c4ccc(C(=O)O)cc4)c4nc(c(-c5ccc(C(=O)O)cc5)c5ccc2[nH]5)C=C4)C=C3)cc1)C(=O)N[C@@H](CCCCNC(=O)/C=C(/CC(=O)O)C(=O)O)C(=O)N[C@@H](CC(C)C)C(=O)N[C@@H](CCCCN)C(=O)N[C@@H](CC(C)C)C(=O)N[C@@H](CCCCNC(=O)/C=C(/CC(=O)O)C(=O)O)C(=O)NCC(=O)N[C@@H](C)C(=O)N[C@H]1CSSC[C@@H](C(=O)N2CCC[C@H]2C(=O)N[C@H](C(=O)O)C(C)C)NC(=O)[C@@H]2CCCN2C(=O)[C@H](Cc2ccc(O)cc2)NC(=O)[C@H](CC(C)C)NC(=O)[C@@H]2CCCN2C(=O)[C@H](CC(C)C)NC(=O)[C@H](Cc2c[nH]c3ccccc23)NC(=O)[C@H](CC(N)=O)NC1=O` [Gi-F-CAA] (X1-LK(X2)LKLK(X2)GACNWLPLYPCPV-OH; disulfide 9-17; C-terminus assumed), the “particle size (DLS) after incubation at pH 6.5 for 1 h” value (Particle size by DLS; 40 μM, PBS 0.01 M, pH 6.5, 1 h, 25 °C) was 78 ± 11 nm, the “particle size (DLS) before incubation” value (Particle size by DLS; 40 μM, PBS 0.01 M, pH 6.5, before incubation, 25 °C) was 13 ± 3 nm and the “particle size change (DLS) at pH 7.4” value (Particle size by DLS; 40 μM, PBS 0.01 M, pH 7.4) was “no obvious changes”. The “size (DLS) at pH 7.4” value (Particle size by DLS; pH 7.4, peer review response) was “about 11 ± 2 nm”, the “intracellular Fe^2+ (FerroOrange fluorescence), pH 6.5” value (EJ cells; EJ cells, pH 6.5, 40 μM, 8 h) was “substantially enhanced fluorescence” and the “intracellular Fe^2+ (FerroOrange fluorescence), pH 7.4” value (EJ cells; EJ cells, pH 7.4, 8 h) was “no remarkable fluorescence”. The “Concentrations of Fe2+ ions” value (EJ cells; pH=6.5, replicate #1) was 22.485 ng/104cells, the “Concentrations of Fe2+ ions” value (EJ cells; pH=6.5, replicate #2) was 27.487 ng/104cells and the “Concentrations of Fe2+ ions” value (EJ cells; pH=6.5, replicate #3) was 29.009 ng/104cells. The “Concentrations of Fe2+ ions” value (EJ cells; pH=7.4, replicate #1) was 12.656 ng/104cells, the “Concentrations of Fe2+ ions” value (EJ cells; pH=7.4, replicate #2) was 15.918 ng/104cells and the “Concentrations of Fe2+ ions” value (EJ cells; pH=7.4, replicate #3) was 12.221 ng/104cells. For the same compound, the “Cell viability of HUVEC” value (HUVEC cells; log concentration (μM) 0, replicate 1) was 101.3%, the “Cell viability of HUVEC” value (HUVEC cells; log concentration (μM) 0, replicate 2) was 99.35% and the “Cell viability of HUVEC” value (HUVEC cells; log concentration (μM) 0, replicate 3) was 93.55%. For the same compound, the “Cell viability of HUVEC” value (HUVEC cells; log concentration (μM) 0.30103, replicate 1) was 97.11%, the “Cell viability of HUVEC” value (HUVEC cells; log concentration (μM) 0.30103, replicate 2) was 93.48% and the “Cell viability of HUVEC” value (HUVEC cells; log concentration (μM) 0.30103, replicate 3) was 94.74%. The “Cell viability of HUVEC” value (HUVEC cells; log concentration (μM) 0.60206, replicate 1) was 97.32%, the “Cell viability of HUVEC” value (HUVEC cells; log concentration (μM) 0.60206, replicate 2) was 86.5% and the “Cell viability of HUVEC” value (HUVEC cells; log concentration (μM) 0.60206, replicate 3) was 95.44%. For the same compound, the “Cell viability of HUVEC” value (HUVEC cells; log concentration (μM) 0.90309, replicate 1) was 84.68%, the “Cell viability of HUVEC” value (HUVEC cells; log concentration (μM) 0.90309, replicate 2) was 94.46% and the “Cell viability of HUVEC” value (HUVEC cells; log concentration (μM) 0.90309, replicate 3) was 84.96%. The “Cell viability of HUVEC” value (HUVEC cells; log concentration (μM) 1.20412, replicate 1) was 84.75%, the “Cell viability of HUVEC” value (HUVEC cells; log concentration (μM) 1.20412, replicate 2) was 89.22% and the “Cell viability of HUVEC” value (HUVEC cells; log concentration (μM) 1.20412, replicate 3) was 82.31%. The “Cell viability of HUVEC” value (HUVEC cells; log concentration (μM) 1.50515, replicate 1) was 77.42%, the “Cell viability of HUVEC” value (HUVEC cells; log concentration (μM) 1.50515, replicate 2) was 83.56% and the “Cell viability of HUVEC” value (HUVEC cells; log concentration (μM) 1.50515, replicate 3) was 82.86%. The “Cell viability of HUVEC” value (HUVEC cells; log concentration (μM) 1.80618, replicate 1) was 75.32%, the “Cell viability of HUVEC” value (HUVEC cells; log concentration (μM) 1.80618, replicate 2) was 80.77% and the “Cell viability of HUVEC” value (HUVEC cells; log concentration (μM) 1.80618, replicate 3) was 73.08%. For the same compound, the “Cell viability of HUVEC” value (HUVEC cells; log concentration (μM) 2.10721, replicate 1) was 65.68%, the “Cell viability of HUVEC” value (HUVEC cells; log concentration (μM) 2.10721, replicate 2) was 64.77% and the “Cell viability of HUVEC” value (HUVEC cells; log concentration (μM) 2.10721, replicate 3) was 61.91%. The “Cell viability of HUVEC” value (HUVEC cells; log concentration (μM) 2.40824, replicate 1) was 56.53%, the “Cell viability of HUVEC” value (HUVEC cells; log concentration (μM) 2.40824, replicate 2) was 48.01% and the “Cell viability of HUVEC” value (HUVEC cells; log concentration (μM) 2.40824, replicate 3) was 52.83%. For the same compound, the “Fnorm (‰), MST original data” value (GPX4 protein; ligand concentration 3.05176e-8 (μM)) was 933.824 ‰, the “Fnorm (‰), MST original data” value (GPX4 protein; ligand concentration 6.10352e-8 (μM)) was 930.278 ‰ and the “Fnorm (‰), MST original data” value (GPX4 protein; ligand concentration 1.2207e-7 (μM)) was 933.334 ‰. For the same compound, the “Fnorm (‰), MST original data” value (GPX4 protein; ligand concentration 2.44141e-7 (μM)) was 933.054 ‰, the “Fnorm (‰), MST original data” value (GPX4 protein; ligand concentration 4.88281e-7 (μM)) was 933.313 ‰ and the “Fnorm (‰), MST original data” value (GPX4 protein; ligand concentration 9.76563e-7 (μM)) was 936.876 ‰. For the same compound, the “Fnorm (‰), MST original data” value (GPX4 protein; ligand concentration 1.95313e-6 (μM)) was 940.785 ‰, the “Fnorm (‰), MST original data” value (GPX4 protein; ligand concentration 3.90625e-6 (μM)) was 940.492 ‰ and the “Fnorm (‰), MST original data” value (GPX4 protein; ligand concentration 7.8125e-6 (μM)) was 946.829 ‰. The “Fnorm (‰), MST original data” value (GPX4 protein; ligand concentration 1.5625e-5 (μM)) was 943.797 ‰, the “Fnorm (‰), MST original data” value (GPX4 protein; ligand concentration 3.125e-5 (μM)) was 948.084 ‰ and the “Fnorm (‰), MST original data” value (GPX4 protein; ligand concentration 6.25e-5 (μM)) was 945.991 ‰. The “Fnorm (‰), MST original data” value (GPX4 protein; ligand concentration 0.000125 (μM)) was 949.08 ‰, the “Fnorm (‰), MST original data” value (GPX4 protein; ligand concentration 0.00025 (μM)) was 946.188 ‰ and the “Fnorm (‰), MST original data” value (GPX4 protein; ligand concentration 0.0005 (μM)) was 949.615 ‰. For the same compound, the “Fnorm (‰), MST original data” value (GPX4 protein; ligand concentration 0.001 (μM)) was 948.046 ‰, the “Relative activity of GPX4” value (GPX4; EJ cells, 8 h, pH 6.5, 40 μM, PBS group normalized as 1, #1) was 0.12 and the “Relative activity of GPX4” value (GPX4; EJ cells, 8 h, pH 6.5, 40 μM, PBS group normalized as 1, #2) was 0.09. The “Relative activity of GPX4” value (GPX4; EJ cells, 8 h, pH 6.5, 40 μM, PBS group normalized as 1, #3) was 0.17, the “Relative activity of GPX4” value (GPX4; EJ cells, 8 h, pH 7.4, PBS group normalized as 1, #1) was 0.62 and the “Relative activity of GPX4” value (GPX4; EJ cells, 8 h, pH 7.4, PBS group normalized as 1, #2) was 0.73. The “Relative activity of GPX4” value (GPX4; EJ cells, 8 h, pH 7.4, PBS group normalized as 1, #3) was 0.69, the “Relative activity of GPX4” value (GPX4; pH=6.5, replicate #1) was 0.21 and the “Relative activity of GPX4” value (GPX4; pH=6.5, replicate #2) was 0.24. The “Relative activity of GPX4” value (GPX4; pH=6.5, replicate #3) was 0.19, the “Relative activity of GPX4” value (GPX4; pH=7.4, replicate #1) was 0.76 and the “Relative activity of GPX4” value (GPX4; pH=7.4, replicate #2) was 0.63. For the same compound, the “Relative activity of GPX4” value (GPX4; pH=7.4, replicate #3) was 0.6.
